# Assay results as given in article PMC3942423 (Nature chemical biology, 2009).
# What was measured:
# Bt3990 = molecular target: T1, Bt3990 (Bacteroides thetaiotaomicron, UniProt Q8A0N1); assay: inhibition studies; assay type: biochemical
# T1 sequence (Q8A0N1 20-755): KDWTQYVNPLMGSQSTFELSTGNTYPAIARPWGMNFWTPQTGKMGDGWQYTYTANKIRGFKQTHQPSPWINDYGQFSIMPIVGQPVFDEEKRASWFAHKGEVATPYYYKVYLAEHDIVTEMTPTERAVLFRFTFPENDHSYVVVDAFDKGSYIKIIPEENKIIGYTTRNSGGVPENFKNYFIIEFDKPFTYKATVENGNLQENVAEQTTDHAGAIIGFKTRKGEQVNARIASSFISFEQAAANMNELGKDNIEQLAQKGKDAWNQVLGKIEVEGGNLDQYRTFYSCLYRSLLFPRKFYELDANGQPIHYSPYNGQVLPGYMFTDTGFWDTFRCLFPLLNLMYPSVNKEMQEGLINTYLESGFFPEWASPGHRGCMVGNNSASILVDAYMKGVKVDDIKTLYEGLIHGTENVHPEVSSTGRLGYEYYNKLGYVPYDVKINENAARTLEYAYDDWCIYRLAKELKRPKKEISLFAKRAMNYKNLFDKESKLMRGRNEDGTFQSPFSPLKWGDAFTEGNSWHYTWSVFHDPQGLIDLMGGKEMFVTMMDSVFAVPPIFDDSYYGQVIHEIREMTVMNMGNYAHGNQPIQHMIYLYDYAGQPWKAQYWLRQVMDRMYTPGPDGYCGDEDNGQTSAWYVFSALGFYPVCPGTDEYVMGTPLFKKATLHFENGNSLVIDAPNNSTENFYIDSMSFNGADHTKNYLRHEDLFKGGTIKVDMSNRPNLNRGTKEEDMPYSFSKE
# Bt3990 E533A variant = assay: kinetics of enzyme variant on DNP-Man; assay type: biochemical, Bacteroides thetaiotaomicron; conditions: E533A variant of Bt3990, activated aryl mannoside
# Bt3990 E585A = Bt3990 E585A (Bacteroides thetaiotaomicron, UniProt Q8A0N1, E585A); assay: kinetics of enzyme variant; assay type: biochemical; conditions: E585A of Bt3990, activated substrate
Compound,Ki (Bt3990) [µM],kcat/Km relative to the wild-type enzyme (Bt3990 E533A variant) [%],change of kcat/Km (Bt3990 E585A)
OC[C@@H]1[C@@H](O)[C@H](O)[C@H](O)c2nccn21 [mannoimidazole],140,,
O=[N+]([O-])c1ccc(O[C@H]2O[C@H](CO)[C@@H](O)[C@H](O)[C@@H]2O)c([N+](=O)[O-])c1 [DNP-Man],,370,increased
